test system: Hs746T; assay: MTT cytotoxicity assay, Hs746T; type: cell-based; conditions: Homo sapiens, stomach carcinoma, 48 hours, absolute IC50
Experimental: (§1) To test the cytotoxicity effect of the compounds NYH001-NYH005 in various cancer cell types, different cancer cells were treated with the compounds for 48 hours and analyzed using MTT assay. […] Absolute IC50 values of the compounds were calculated (Table 1, FIG. 1A-C).

Structure (SMILES) | IC50 [nM]
C=C(C)C(=O)O[C@H]1C/C(C)=C/C(=O)/C=C(/C)[C@@H](OC(=O)c2ccc(C(F)(F)F)cc2)[C@H]2OC(=O)C(=C)C12 (some centres unmarked) [NYH004] | 1190
C=C(C)C(=O)O[C@H]1C/C(C)=C/C(=O)/C=C(/C)[C@@H](OC(=O)c2ccccc2)[C@H]2OC(=O)C(=C)C12 (some centres unmarked) [NYH002] | 468
C=C(C)C(=O)O[C@H]1C/C(C)=C/C(=O)/C=C(/C)[C@@H](OC(=O)c2cc(C(F)(F)F)cc(C(F)(F)F)c2)[C@H]2OC(=O)C(=C)C12 (some centres unmarked) [NYH005] | 1940

test system: cancer cells; assay: Colony formation (clonogenic) assay; type: cell-based; conditions: some cell lines, concentration as low as 1 μM
Experimental: To further confirm the growth inhibitory effect of compounds on cancer cells, colony formation assays were performed. Cells were treated with various doses of the compounds and allowed to grow for 7-10 days till they form colonies. Colonies were fixed and stained with 0.5% w/v crystal violet, containing methanol. The cell culture plates were rinsed with distilled water before scanning for quantification. Colony counts were quantified using Image J software.

Structure (SMILES) | colonies formed
C=C(C)C(=O)O[C@H]1C/C(C)=C/C(=O)/C=C(/C)[C@@H](OC(=O)c2ccccc2)[C@H]2OC(=O)C(=C)C12 (some centres unmarked) [NYH002] | did not result in any colonies formed

test system: H1299; assay: MTT cytotoxicity assay, H1299; type: cell-based; conditions: Homo sapiens, NCI-H1299, H1299, lung carcinoma, 48 hours, absolute IC50
Experimental: as §1

Structure (SMILES) | IC50 [nM]
C=C(C)C(=O)O[C@H]1C/C(C)=C/C(=O)/C=C(/C)[C@@H](OC(=O)c2ccc(C(F)(F)F)cc2)[C@H]2OC(=O)C(=C)C12 (some centres unmarked) [NYH004] | 1670
C=C(C)C(=O)O[C@H]1C/C(C)=C/C(=O)/C=C(/C)[C@@H](OC(=O)c2ccccc2)[C@H]2OC(=O)C(=C)C12 (some centres unmarked) [NYH002] | 1350
C=C(C)C(=O)O[C@H]1C/C(C)=C/C(=O)/C=C(/C)[C@@H](OC(=O)c2cc(C(F)(F)F)cc(C(F)(F)F)c2)[C@H]2OC(=O)C(=C)C12 (some centres unmarked) [NYH005] | 1550

test system: DLD-1; assay: MTT cytotoxicity assay, DLD-1; type: cell-based; conditions: Homo sapiens; DLD-1, colon adenocarcinoma, 48 hours, MTT, absolute IC50; read-out: IC50
Experimental: as §1

Structure (SMILES) | IC50 [nM]
C=C(C)C(=O)O[C@H]1C/C(C)=C/C(=O)/C=C(/C)[C@@H](OC(=O)c2ccc(C(F)(F)F)cc2)[C@H]2OC(=O)C(=C)C12 (some centres unmarked) [NYH004] | 933
C=C(C)C(=O)O[C@H]1C/C(C)=C/C(=O)/C=C(/C)[C@@H](OC(=O)c2ccccc2)[C@H]2OC(=O)C(=C)C12 (some centres unmarked) [NYH002] | 353
C=C(C)C(=O)O[C@H]1C/C(C)=C/C(=O)/C=C(/C)[C@@H](OC(=O)c2cc(C(F)(F)F)cc(C(F)(F)F)c2)[C@H]2OC(=O)C(=C)C12 (some centres unmarked) [NYH005] | 615

test system: MDA-MB-231; assay: MTT cytotoxicity assay, MDA-MB-231; type: cell-based; conditions: Homo sapiens, MDA-MB-231, breast adenocarcinoma, 48 hours, absolute IC50
Experimental: as §1

Structure (SMILES) | IC50 [nM]
C=C(C)C(=O)O[C@H]1C/C(C)=C/C(=O)/C=C(/C)[C@@H](OC(=O)c2ccc(C(F)(F)F)cc2)[C@H]2OC(=O)C(=C)C12 (some centres unmarked) [NYH004] | 1140
C=C(C)C(=O)O[C@H]1C/C(C)=C/C(=O)/C=C(/C)[C@@H](OC(=O)c2ccccc2)[C@H]2OC(=O)C(=C)C12 (some centres unmarked) [NYH002] | 909
C=C(C)C(=O)O[C@H]1C/C(C)=C/C(=O)/C=C(/C)[C@@H](OC(=O)c2cc(C(F)(F)F)cc(C(F)(F)F)c2)[C@H]2OC(=O)C(=C)C12 (some centres unmarked) [NYH005] | 1470

test system: DLD-1 cells xenograft; assay: DLD-1 subcutaneous tumour xenograft mouse model; type: in vivo; conditions: DLD-1 xenografted mice, 25 mg/kg intraperitoneal once every 2 days, after 21 days
Experimental: (§2) Female J:Nu outbred nude mice (5-6 weeks old) were injected subcutaneously at the right flank with 1×10^6 HCT116 or DLD-1 cells in 1:1 Hank's Balanced salt solution/Matrigel. Mice were assigned into treatment groups (4-5 mice per group) when tumour volumes reached 50-100 mm^3. Vehicle control (Ethanol:Kolliphor EL:saline=1:1:8), NYH001 (25 mg/kg), NYH002 (25 mg/kg) or 5-flurouracil (5-FU, 25 mg/kg) was given once every 2 days by intraperitoneal injection for 3 weeks. Bodyweight of the mice was taken every day and tumour size was measured twice a week. Tumour sizes were calculated using the formula, volume=(length×width^2)/2 mm^3. At the end of the 3 weeks treatment period, the mice were sacrificed and tumours excised. All procedures were approved by the NTU Institutional Animal Care and Use Committee (IACUC) and conducted in accordance with the IACUC protocol A20001.

Structure (SMILES) | reduction of average tumor volume compared to vehicle control [%] | reduction of average tumor weight compared to vehicle control [%]
C=C(C)C(=O)O[C@H]1C/C(C)=C/C(=O)/C=C(/C)[C@@H](OC(=O)c2ccccc2)[C@H]2OC(=O)C(=C)C12 (some centres unmarked) [NYH002] | 51.9 | 57.3

test system: HCT116; assay: MTT cytotoxicity assay, HCT116; type: cell-based; conditions: Homo sapiens, HCT-116, HCT116, colon carcinoma, 48 hours, absolute IC50
Experimental: as §1

Structure (SMILES) | IC50 [nM]
C=C(C)C(=O)O[C@H]1C/C(C)=C/C(=O)/C=C(/C)[C@@H](OC(=O)c2ccc(C(F)(F)F)cc2)[C@H]2OC(=O)C(=C)C12 (some centres unmarked) [NYH004] | 1300
C=C(C)C(=O)O[C@H]1C/C(C)=C/C(=O)/C=C(/C)[C@@H](OC(=O)c2ccccc2)[C@H]2OC(=O)C(=C)C12 (some centres unmarked) [NYH002] | 869
C=C(C)C(=O)O[C@H]1C/C(C)=C/C(=O)/C=C(/C)[C@@H](OC(=O)c2cc(C(F)(F)F)cc(C(F)(F)F)c2)[C@H]2OC(=O)C(=C)C12 (some centres unmarked) [NYH005] | 1590

test system: Huh7; assay: MTT cytotoxicity assay, Huh7; type: cell-based; conditions: Homo sapiens, Huh-7, Huh7, liver carcinoma, 48 hours, absolute IC50
Experimental: as §1

Structure (SMILES) | IC50 [nM]
C=C(C)C(=O)O[C@H]1C/C(C)=C/C(=O)/C=C(/C)[C@@H](OC(=O)c2ccc(C(F)(F)F)cc2)[C@H]2OC(=O)C(=C)C12 (some centres unmarked) [NYH004] | 1590
C=C(C)C(=O)O[C@H]1C/C(C)=C/C(=O)/C=C(/C)[C@@H](OC(=O)c2ccccc2)[C@H]2OC(=O)C(=C)C12 (some centres unmarked) [NYH002] | 1160
C=C(C)C(=O)O[C@H]1C/C(C)=C/C(=O)/C=C(/C)[C@@H](OC(=O)c2cc(C(F)(F)F)cc(C(F)(F)F)c2)[C@H]2OC(=O)C(=C)C12 (some centres unmarked) [NYH005] | 2090

test system: AGS; assay: MTT cytotoxicity assay, AGS; type: cell-based; conditions: Homo sapiens, stomach adenocarcinoma, 48 hours, absolute IC50
Experimental: as §1

Structure (SMILES) | IC50 [nM]
C=C(C)C(=O)O[C@H]1C/C(C)=C/C(=O)/C=C(/C)[C@@H](OC(=O)c2ccc(C(F)(F)F)cc2)[C@H]2OC(=O)C(=C)C12 (some centres unmarked) [NYH004] | 1020
C=C(C)C(=O)O[C@H]1C/C(C)=C/C(=O)/C=C(/C)[C@@H](OC(=O)c2ccccc2)[C@H]2OC(=O)C(=C)C12 (some centres unmarked) [NYH002] | 421
C=C(C)C(=O)O[C@H]1C/C(C)=C/C(=O)/C=C(/C)[C@@H](OC(=O)c2cc(C(F)(F)F)cc(C(F)(F)F)c2)[C@H]2OC(=O)C(=C)C12 (some centres unmarked) [NYH005] | 1120

test system: PC3; assay: MTT cytotoxicity assay, PC3; type: cell-based; conditions: Homo sapiens, PC-3, PC3, prostate adenocarcinoma, 48 hours, absolute IC50
Experimental: as §1

Structure (SMILES) | IC50 [nM]
C=C(C)C(=O)O[C@H]1C/C(C)=C/C(=O)/C=C(/C)[C@@H](OC(=O)c2ccc(C(F)(F)F)cc2)[C@H]2OC(=O)C(=C)C12 (some centres unmarked) [NYH004] | 1970
C=C(C)C(=O)O[C@H]1C/C(C)=C/C(=O)/C=C(/C)[C@@H](OC(=O)c2ccccc2)[C@H]2OC(=O)C(=C)C12 (some centres unmarked) [NYH002] | 1280
C=C(C)C(=O)O[C@H]1C/C(C)=C/C(=O)/C=C(/C)[C@@H](OC(=O)c2cc(C(F)(F)F)cc(C(F)(F)F)c2)[C@H]2OC(=O)C(=C)C12 (some centres unmarked) [NYH005] | 2480

test system: Mcf-7; assay: MTT cytotoxicity assay, Mcf-7; type: cell-based; conditions: Homo sapiens, MCF7, Mcf-7, breast adenocarcinoma, 48 hours, absolute IC50
Experimental: as §1

Structure (SMILES) | IC50 [nM]
C=C(C)C(=O)O[C@H]1C/C(C)=C/C(=O)/C=C(/C)[C@@H](OC(=O)c2ccc(C(F)(F)F)cc2)[C@H]2OC(=O)C(=C)C12 (some centres unmarked) [NYH004] | 2040
C=C(C)C(=O)O[C@H]1C/C(C)=C/C(=O)/C=C(/C)[C@@H](OC(=O)c2ccccc2)[C@H]2OC(=O)C(=C)C12 (some centres unmarked) [NYH002] | 2000
C=C(C)C(=O)O[C@H]1C/C(C)=C/C(=O)/C=C(/C)[C@@H](OC(=O)c2cc(C(F)(F)F)cc(C(F)(F)F)c2)[C@H]2OC(=O)C(=C)C12 (some centres unmarked) [NYH005] | 2380

test system: A549; assay: MTT cytotoxicity assay, A549; type: cell-based; conditions: Homo sapiens, A549, lung carcinoma, 48 hours, absolute IC50
Experimental: as §1

Structure (SMILES) | IC50 [µM]
C=C(C)C(=O)O[C@H]1C/C(C)=C/C(=O)/C=C(/C)[C@@H](OC(=O)c2ccc(C(F)(F)F)cc2)[C@H]2OC(=O)C(=C)C12 (some centres unmarked) [NYH004] | 5.23
C=C(C)C(=O)O[C@H]1C/C(C)=C/C(=O)/C=C(/C)[C@@H](OC(=O)c2ccccc2)[C@H]2OC(=O)C(=C)C12 (some centres unmarked) [NYH002] | 5.08
C=C(C)C(=O)O[C@H]1C/C(C)=C/C(=O)/C=C(/C)[C@@H](OC(=O)c2cc(C(F)(F)F)cc(C(F)(F)F)c2)[C@H]2OC(=O)C(=C)C12 (some centres unmarked) [NYH005] | 5.86

test system: Hep3B; assay: MTT cytotoxicity assay, Hep3B; type: cell-based; conditions: Homo sapiens, liver carcinoma, 48 hours, absolute IC50
Experimental: as §1

Structure (SMILES) | IC50 [nM]
C=C(C)C(=O)O[C@H]1C/C(C)=C/C(=O)/C=C(/C)[C@@H](OC(=O)c2ccc(C(F)(F)F)cc2)[C@H]2OC(=O)C(=C)C12 (some centres unmarked) [NYH004] | 1850
C=C(C)C(=O)O[C@H]1C/C(C)=C/C(=O)/C=C(/C)[C@@H](OC(=O)c2ccccc2)[C@H]2OC(=O)C(=C)C12 (some centres unmarked) [NYH002] | 911
C=C(C)C(=O)O[C@H]1C/C(C)=C/C(=O)/C=C(/C)[C@@H](OC(=O)c2cc(C(F)(F)F)cc(C(F)(F)F)c2)[C@H]2OC(=O)C(=C)C12 (some centres unmarked) [NYH005] | 2000

test system: HCT116 cells xenograft; assay: HCT116 subcutaneous tumour xenograft mouse model; type: in vivo; conditions: HCT116 xenografted mice, 25 mg/kg intraperitoneal once every 2 days, after 21 days
Experimental: as §2

Structure (SMILES) | reduction of average tumor volume compared to vehicle control [%] | reduction of average tumor weight compared to vehicle control [%]
C=C(C)C(=O)O[C@H]1C/C(C)=C/C(=O)/C=C(/C)[C@@H](OC(=O)c2ccccc2)[C@H]2OC(=O)C(=C)C12 (some centres unmarked) [NYH002] | 46.5 | 49.3

test system: Du145; assay: MTT cytotoxicity assay, Du145; type: cell-based; conditions: Homo sapiens, DU-145, Du145, prostate carcinoma, 48 hours, absolute IC50
Experimental: as §1

Structure (SMILES) | IC50 [µM]
C=C(C)C(=O)O[C@H]1C/C(C)=C/C(=O)/C=C(/C)[C@@H](OC(=O)c2ccc(C(F)(F)F)cc2)[C@H]2OC(=O)C(=C)C12 (some centres unmarked) [NYH004] | 3
C=C(C)C(=O)O[C@H]1C/C(C)=C/C(=O)/C=C(/C)[C@@H](OC(=O)c2ccccc2)[C@H]2OC(=O)C(=C)C12 (some centres unmarked) [NYH002] | 2.36
C=C(C)C(=O)O[C@H]1C/C(C)=C/C(=O)/C=C(/C)[C@@H](OC(=O)c2cc(C(F)(F)F)cc(C(F)(F)F)c2)[C@H]2OC(=O)C(=C)C12 (some centres unmarked) [NYH005] | 3.6
